Like-named read-outs stand apart in the source and are kept apart here. Values belong to the molecule of their own block, whether it stands above or below them.
How the values were obtained:
[1] = other bond, THF
[2] = target: CDK1-CYCLIN B (Homo sapiens, UniProt P06493); test: CDK protein kinase inhibition by ADP-Glo assay, CDK1-CYCLIN B; assay type: biochemical; details: ADP-Glo, 1000 μM ATP, read-out: CDK1-CYCLINB, IC50
How it was run: (§1)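 Compounds were incubated at 22° C with the CDK/cyclin complex, peptide substrate, 1000 μM ATP and 5 mM MgCl2. The reaction was then quenched and ADP formation quantified by luminescence using ADP-Glo reagents.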

[3] = target: CDK2-CYCLIN E1 (Homo sapiens, UniProt P24941); test: CDK protein kinase inhibition by ADP-Glo assay, CDK2-CYCLIN E1; assay type: biochemical; details: ADP-Glo, 1000 μM ATP, read-out: CDK2-CYCLINE, IC50
How it was run: as §1

[4] = target: CDK4-CYCLIN D1 (Homo sapiens, UniProt P11802); test: CDK protein kinase inhibition by ADP-Glo assay, CDK4-CYCLIN D1; assay type: biochemical; details: ADP-Glo, 1000 μM ATP, read-out: CDK4-CYCLIND1, IC50
How it was run: as §1

[5] = target: CDK6-CYCLIN D3 (Homo sapiens, UniProt Q00534); test: CDK protein kinase inhibition by ADP-Glo assay, CDK6-CYCLIN D3; assay type: biochemical; details: ADP-Glo, 1000 μM ATP, read-out: CDK6-CYCLIND3, IC50
How it was run: as §1

[6] = target: CDK9-CYCLIN T1 (Homo sapiens, UniProt P50750); test: CDK protein kinase inhibition by ADP-Glo assay, CDK9-CYCLIN T1; assay type: biochemical; details: ADP-Glo, 1000 μM ATP, read-out: CDK9-CYCLINT1, IC50
How it was run: as §1

[7] = system: Phospho-Rb (Ser807/811) in OVCAR3 cells; test: Phospho-Rb expression inhibition in OVCAR3 cells quantified by In Cell Western; assay type: cell-based; details: Homo sapiens, OVCAR-3, 24 hours, read-out: OVCAR-3 pRb IC50
How it was run: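 In-cell western: after 24 h compound exposure at 37° C, fixed OVCAR3 cells co-stained for pRb Ser807/811 (800 nm channel) and total Rb (680 nm channel), imaged by LI-COR Odyssey.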

[8] = system: CCNE1-amplified OVCAR3 cells; test: Cell growth inhibition of CCNE1-amplified OVCAR3 cells (CellTiter-Glo); assay type: cell-based; details: Homo sapiens, OVCAR-3, 144 h, 6 days
How it was run: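 Growth read-out was CellTiter-Glo luminescence, taken after 10 min at room temperature at the end of a 6-day compound exposure at 37 °C. Compounds were diluted from DMSO stocks across various concentrations.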

[9] = system: CCNE1-normal SKOV3 cells; test: Cell growth inhibition of CCNE1-normal SKOV3 cells (CellTiter-Glo); assay type: cell-based; details: Homo sapiens, SK-OV-3, 144 h, 6 days
How it was run: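 Growth was measured by CellTiter-Glo luminescence after 6 days' compound exposure at 37 °C. Cells were plated one day before dosing at 1000 per well in medium with 10% FBS, and compounds were diluted from DMSO stocks.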

Chain of CDK6-CYCLIN D3 (Q00534 whole entry): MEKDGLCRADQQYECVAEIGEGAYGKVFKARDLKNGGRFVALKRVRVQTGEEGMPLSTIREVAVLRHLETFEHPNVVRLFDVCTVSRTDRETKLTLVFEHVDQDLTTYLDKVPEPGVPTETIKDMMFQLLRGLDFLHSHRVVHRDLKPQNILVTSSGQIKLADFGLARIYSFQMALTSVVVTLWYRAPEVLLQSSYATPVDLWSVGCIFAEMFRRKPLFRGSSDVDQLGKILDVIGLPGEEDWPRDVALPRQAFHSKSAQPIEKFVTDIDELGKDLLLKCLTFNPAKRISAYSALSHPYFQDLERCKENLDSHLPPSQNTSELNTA
Chain of CDK6-CYCLIN D3 (P30281 whole entry partner): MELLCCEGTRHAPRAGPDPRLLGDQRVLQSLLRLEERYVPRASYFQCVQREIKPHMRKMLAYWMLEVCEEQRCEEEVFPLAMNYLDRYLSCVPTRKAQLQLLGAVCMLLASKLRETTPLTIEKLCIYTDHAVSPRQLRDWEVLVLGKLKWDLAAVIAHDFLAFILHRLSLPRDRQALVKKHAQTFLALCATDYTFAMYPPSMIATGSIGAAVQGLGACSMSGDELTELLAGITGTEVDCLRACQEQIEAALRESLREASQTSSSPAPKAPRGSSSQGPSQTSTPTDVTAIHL
Chain of CDK9-CYCLIN T1 (P50750 whole entry): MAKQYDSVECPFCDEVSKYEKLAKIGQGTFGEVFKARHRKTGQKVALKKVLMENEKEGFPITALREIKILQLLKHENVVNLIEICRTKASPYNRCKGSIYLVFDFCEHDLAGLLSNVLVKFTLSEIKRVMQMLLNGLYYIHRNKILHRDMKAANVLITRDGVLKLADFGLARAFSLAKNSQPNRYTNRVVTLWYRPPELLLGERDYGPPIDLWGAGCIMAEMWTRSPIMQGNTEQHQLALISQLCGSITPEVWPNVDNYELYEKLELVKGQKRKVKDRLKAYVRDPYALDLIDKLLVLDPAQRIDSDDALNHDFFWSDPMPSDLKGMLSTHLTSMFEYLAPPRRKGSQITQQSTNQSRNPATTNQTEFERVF
Chain of CDK9-CYCLIN T1 (O60563 whole entry partner): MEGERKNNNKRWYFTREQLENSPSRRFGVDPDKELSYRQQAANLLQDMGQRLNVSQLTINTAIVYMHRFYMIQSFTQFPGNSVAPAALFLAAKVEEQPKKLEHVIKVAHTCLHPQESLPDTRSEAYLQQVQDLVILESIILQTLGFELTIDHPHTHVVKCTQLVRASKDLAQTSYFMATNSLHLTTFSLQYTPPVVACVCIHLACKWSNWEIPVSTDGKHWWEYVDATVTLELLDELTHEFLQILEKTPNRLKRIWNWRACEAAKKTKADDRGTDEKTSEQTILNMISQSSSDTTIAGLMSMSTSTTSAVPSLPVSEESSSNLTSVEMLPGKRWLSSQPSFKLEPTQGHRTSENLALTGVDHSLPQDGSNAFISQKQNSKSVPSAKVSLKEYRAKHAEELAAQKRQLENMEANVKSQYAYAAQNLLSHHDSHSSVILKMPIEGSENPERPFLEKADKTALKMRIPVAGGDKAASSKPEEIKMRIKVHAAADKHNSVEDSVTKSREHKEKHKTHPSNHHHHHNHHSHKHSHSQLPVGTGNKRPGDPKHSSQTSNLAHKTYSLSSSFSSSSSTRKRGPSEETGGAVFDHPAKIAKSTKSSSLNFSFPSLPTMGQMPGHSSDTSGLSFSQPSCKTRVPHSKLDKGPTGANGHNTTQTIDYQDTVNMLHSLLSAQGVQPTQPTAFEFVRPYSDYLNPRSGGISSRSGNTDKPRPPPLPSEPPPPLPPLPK
Chain of CDK1-CYCLIN B (P06493 whole entry): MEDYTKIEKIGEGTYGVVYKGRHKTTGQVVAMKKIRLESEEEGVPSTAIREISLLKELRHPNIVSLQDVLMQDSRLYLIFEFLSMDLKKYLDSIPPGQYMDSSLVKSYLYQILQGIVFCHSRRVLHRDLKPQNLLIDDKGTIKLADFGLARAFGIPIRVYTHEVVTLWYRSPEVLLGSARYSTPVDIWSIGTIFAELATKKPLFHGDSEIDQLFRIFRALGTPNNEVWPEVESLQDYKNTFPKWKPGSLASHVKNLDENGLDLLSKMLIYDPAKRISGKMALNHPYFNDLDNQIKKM
Chain of CDK1-CYCLIN B (P14635 whole entry partner): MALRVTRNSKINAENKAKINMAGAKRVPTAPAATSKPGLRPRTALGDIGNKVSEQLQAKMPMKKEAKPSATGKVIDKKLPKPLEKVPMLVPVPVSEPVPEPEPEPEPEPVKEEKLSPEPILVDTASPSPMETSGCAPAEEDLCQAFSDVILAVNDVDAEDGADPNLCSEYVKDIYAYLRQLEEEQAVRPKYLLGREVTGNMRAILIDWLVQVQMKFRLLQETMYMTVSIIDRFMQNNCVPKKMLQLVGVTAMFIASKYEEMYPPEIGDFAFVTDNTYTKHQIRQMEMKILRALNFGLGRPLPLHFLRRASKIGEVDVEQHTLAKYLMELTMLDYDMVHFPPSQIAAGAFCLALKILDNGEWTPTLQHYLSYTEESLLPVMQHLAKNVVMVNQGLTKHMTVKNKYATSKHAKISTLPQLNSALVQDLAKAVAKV
Chain of CDK4-CYCLIN D1 (P11802 whole entry): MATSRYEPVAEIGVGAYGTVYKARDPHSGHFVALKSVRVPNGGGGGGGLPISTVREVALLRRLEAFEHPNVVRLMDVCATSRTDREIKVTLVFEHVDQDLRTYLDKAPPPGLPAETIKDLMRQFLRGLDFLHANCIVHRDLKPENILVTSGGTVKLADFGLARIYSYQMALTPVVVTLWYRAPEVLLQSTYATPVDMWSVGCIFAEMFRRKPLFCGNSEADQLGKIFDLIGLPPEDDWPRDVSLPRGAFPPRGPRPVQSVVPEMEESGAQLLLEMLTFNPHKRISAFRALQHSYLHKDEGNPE
Chain of CDK4-CYCLIN D1 (P24385 whole entry partner): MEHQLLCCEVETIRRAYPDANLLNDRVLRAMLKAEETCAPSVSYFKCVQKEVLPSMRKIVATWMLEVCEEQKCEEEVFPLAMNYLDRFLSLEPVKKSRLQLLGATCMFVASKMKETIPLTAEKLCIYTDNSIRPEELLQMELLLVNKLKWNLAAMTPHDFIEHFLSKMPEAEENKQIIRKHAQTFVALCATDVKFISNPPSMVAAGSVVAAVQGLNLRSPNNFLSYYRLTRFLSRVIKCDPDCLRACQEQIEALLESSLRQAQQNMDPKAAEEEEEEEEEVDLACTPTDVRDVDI

Compound: CC(C)(C)n1nc2cc1Nc1cc(nc(C(F)F)c1)CCCCCNC(=O)O[C@@H]1CC[C@H]2C1
ring closure, yield of all isomers ([1]; from CC(C)(C)n1nc([C@H]2CC[C@@H](OC(=O)Oc3ccc([N+](=O)[O-])cc3)C2)cc1Nc1cc(CCCCCN)nc(C(F)F)c1, DIPEA, 3.27 mM, 30.0 °C, 12.0 h): 44.1%

Compound: CC(C)(C)n1nc2cc1Nc1cc(nc(C(F)F)c1)OCCCCNC(=O)O[C@@H]1CC[C@H]2C1
ring closure, yield of all isomers ([1]; from CC(C)(C)n1nc([C@H]2CC[C@@H](OC(=O)Oc3ccc([N+](=O)[O-])cc3)C2)cc1Nc1cc(OCCCCN)nc(C(F)F)c1, DIEA, 1.11 mM, 25.0 °C, 12.0 h): 65%

Compound: CC(C)(C)n1nc2cc1Nc1ccnc(c1)C(F)(F)C[C@H]1C[C@@H](C1)NC(=O)O[C@@H]1CC[C@H]2C1
ring closure, yield of all isomers ([1]; from CC(C)(C)n1nc([C@H]2CC[C@@H](OC(=O)Oc3ccc([N+](=O)[O-])cc3)C2)cc1Nc1ccnc(C(F)(F)C[C@H]2C[C@H](N)C2)c1, DIEA, 3.33 mM, 25.0 °C, 12.0 h): 99.9%

Compound: CC(C)(C)n1nc2cc1Nc1ccnc(c1)CCCCCNC(=O)O[C@@H]1CC[C@H]2C1
ring closure, yield of all isomers ([1]; from CC(C)(C)n1nc([C@H]2CC[C@@H](OC(=O)Oc3ccc([N+](=O)[O-])cc3)C2)cc1Nc1ccnc(CCCCCN)c1, DIPEA, 2.0 mM, 30.0 °C, 3.0 h): 85%

Compound: CC(C)(C)n1nc2cc1Nc1ccnc(c1)OC[C@H]1C[C@@H](C1)NC(=O)O[C@@H]1CC[C@H]2C1
ring closure, yield of all isomers ([1]; from CC(C)(C)n1nc([C@H]2CC[C@@H](OC(=O)Oc3ccc([N+](=O)[O-])cc3)C2)cc1Nc1ccnc(OC[C@H]2C[C@H](N)C2)c1, DIEA, 1.21 mM, 70.0 °C, 12.0 h): 96.7%

Compound: CC(C)(C)n1nc2cc1Nc1cncc(c1)OCCCCNC(=O)O[C@@H]1CC[C@H]2C1
ring closure, yield of all isomers ([1]; from CC(C)(C)n1nc([C@H]2CC[C@@H](OC(=O)Oc3ccc([N+](=O)[O-])cc3)C2)cc1Nc1cncc(OCCCCN)c1, DIPEA, 2.01 mM, 25.0 °C, 12.0 h, 2 steps): 49.3%

IC50 ([2]; Table 9): > 500 nM
IC50 ([3]; Table 9): 10 to 50 nM
IC50 ([4]; Table 9): 100 to 500 nM
IC50 ([5]; Table 9): 100 to 500 nM
IC50 ([6]; Table 9): 100 to 500 nM
IC50 [7]: 2 to 10 nM
IC50 [8]: 2 to 10 nM
Compound: O=C1NC23CC(CCc4cc(ccn4)Nc4cc([nH]n4)[C@H]4CC[C@H](C4)O1)(C2)C3 [compound 21]
IC50 [9]: 250 to 1250 nM

IC50 ([2]; Table 15): 50 to 100 nM
IC50 ([3]; Table 15): ≤ 10 nM
IC50 ([4]; Table 15): 100 to 500 nM
IC50 ([5]; Table 15): 100 to 500 nM
IC50 ([6]; Table 15): 100 to 500 nM
IC50 [7]: 2 to 10 nM
IC50 [8]: 10 to 50 nM
Compound: C[C@H]1OCCCNC(=O)O[C@@H]2CC[C@@H](C2)c2cc([nH]n2)Nc2ccnc1c2 [compound 71]
IC50 [9]: 50 to 250 nM

IC50 ([2]; Table 7): 10 to 50 nM
IC50 ([3]; Table 7): ≤ 10 nM
IC50 ([4]; Table 7): 50 to 100 nM
IC50 ([5]; Table 7): 10 to 50 nM
IC50 ([6]; Table 7): 100 to 500 nM
IC50 [7]: 2 to 10 nM
IC50 [8]: 10 to 50 nM
Compound: O=C1NCCCCOc2cncc(c2)Nc2cc(n[nH]2)[C@H]2CC[C@H](C2)O1 [compound 104]
IC50 [9]: > 1250 nM

IC50 ([2]; Table 9): 10 to 50 nM
IC50 ([3]; Table 9): ≤ 10 nM
IC50 ([4]; Table 9): 50 to 100 nM
IC50 ([5]; Table 9): 100 to 500 nM
IC50 ([6]; Table 9): 100 to 500 nM
IC50 [7]: 2 to 10 nM
IC50 [8]: 10 to 50 nM
Compound: C[C@@H]1CCC2(CC2)NC(=O)O[C@@H]2CC[C@@H](C2)c2cc([nH]n2)Nc2ccnc(c2)O1 [compound 109]
IC50 [9]: 250 to 1250 nM

IC50 ([2]; Table 19): 10 to 50 nM
IC50 ([3]; Table 19): ≤ 10 nM
IC50 ([4]; Table 19): 10 to 50 nM
IC50 ([5]; Table 19): 50 to 100 nM
IC50 ([6]; Table 19): 10 to 50 nM
IC50 [7]: 2 to 10 nM
IC50 [8]: 10 to 50 nM
Compound: O=C1N[C@H]2C[C@H](CCc3cc(ccn3)Nc3cc(n[nH]3)[C@H]3CC[C@H](C3)O1)C2 [compound 140]
IC50 [9]: 50 to 250 nM

IC50 ([2]; Table 21): 100 to 500 nM
IC50 ([3]; Table 21): ≤ 10 nM
IC50 ([4]; Table 21): > 500 nM
IC50 ([5]; Table 21): 100 to 500 nM
IC50 ([6]; Table 21): > 500 nM
IC50 [7]: 10 to 50 nM
IC50 [8]: 10 to 50 nM
Compound: C[C@@H]1Oc2cc(ccn2)Nc2cc(n[nH]2)[C@H]2CC[C@H](C2)OC(=O)N[C@H]2C[C@H]1C2 [compound 146]
IC50 [9]: 250 to 1250 nM

IC50 ([2]; Table 23): 100 to 500 nM
IC50 ([3]; Table 23): 10 to 50 nM
IC50 ([4]; Table 23): 100 to 500 nM
IC50 ([5]; Table 23): > 500 nM
IC50 ([6]; Table 23): > 500 nM
IC50 [7]: 10 to 50 nM
IC50 [8]: 10 to 50 nM
Compound: C[C@H]1CCO[C@H](C)c2cc(ccn2)Nc2cc(n[nH]2)[C@H]2CC[C@H](C2)OC(=O)N1 [compound 158]
IC50 [9]: 250 to 1250 nM

IC50 ([2]; Table 23): 10 to 50 nM
IC50 ([3]; Table 23): ≤ 10 nM
IC50 ([4]; Table 23): 10 to 50 nM
IC50 ([5]; Table 23): 50 to 100 nM
IC50 ([6]; Table 23): 50 to 100 nM
IC50 [7]: 2 to 10 nM
IC50 [8]: 2 to 10 nM
Compound: C[C@@H]1OCC[C@H](C)NC(=O)O[C@@H]2CC[C@@H](C2)c2cc([nH]n2)Nc2ccnc1c2 [compound 159]
IC50 [9]: 50 to 250 nM

IC50 ([2]; Table 21): 10 to 50 nM
IC50 ([3]; Table 21): ≤ 10 nM
IC50 ([4]; Table 21): 100 to 500 nM
IC50 ([5]; Table 21): 100 to 500 nM
IC50 ([6]; Table 21): 100 to 500 nM
IC50 [7]: 2 to 10 nM
IC50 [8]: 10 to 50 nM
Compound: C[C@H]1CC[C@H](C)Oc2cc(ccn2)Nc2cc(n[nH]2)[C@H]2CC[C@H](C2)OC(=O)N1 [compound 162]
IC50 [9]: 250 to 1250 nM

IC50 ([2]; Table 23): 50 to 100 nM
IC50 ([3]; Table 23): ≤ 10 nM
IC50 ([4]; Table 23): 100 to 500 nM
IC50 ([5]; Table 23): 100 to 500 nM
IC50 ([6]; Table 23): 100 to 500 nM
IC50 [7]: 10 to 50 nM
IC50 [8]: 10 to 50 nM
Compound: C[C@@H]1CC[C@H](C)Oc2cc(ccn2)Nc2cc(n[nH]2)[C@H]2CC[C@H](C2)OC(=O)N1 [compound 163]
IC50 [9]: 250 to 1250 nM

IC50 ([2]; Table 31): ≤ 10 nM
IC50 ([3]; Table 31): ≤ 10 nM
IC50 ([4]; Table 31): ≤ 10 nM
IC50 ([5]; Table 31): 10 to 50 nM
IC50 ([6]; Table 31): ≤ 10 nM
IC50 [7]: ≤ 2 nM
IC50 [8]: ≤ 2 nM
Compound: C[C@@H]1NC(=O)O[C@@H]2CC[C@@H](C2)c2cc([nH]n2)Nc2ccnc(c2)COCC1(F)F [compound 164]
IC50 [9]: 10 to 50 nM

IC50 ([2]; Table 31): 10 to 50 nM
IC50 ([3]; Table 31): 10 to 50 nM
IC50 ([4]; Table 31): 10 to 50 nM
IC50 ([5]; Table 31): 10 to 50 nM
IC50 ([6]; Table 31): 50 to 100 nM
IC50 [7]: 2 to 10 nM
IC50 [8]: 10 to 50 nM
Compound: C[C@H]1NC(=O)O[C@@H]2CC[C@@H](C2)c2cc([nH]n2)Nc2ccnc(c2)COCC1(F)F [compound 165]
IC50 [9]: 50 to 250 nM

Source: patent US20240317777A1, “NOVEL MACROCYCLIC AMINOPYRAZOLE COMPOUNDS AS CDK2 INHIBITORS” (Accutar Biotechnology Inc., priority 2023, published 2024)
